Reference: patent US20250326722A1 (SHANGHAI HANSOH BIOMEDICAL CO., LTD., priority 2022, published 2025)

Legend:
[1] = target: PCSK9 secreted by HepG2 cells (Homo sapiens (Human), UniProt Q8NBP7); test: Effect on the concentration of PCSK9 secreted by HepG2 cells (ELISA); format: cell-based; details: 48 hours incubation, read-out: Inhibitory activity on PCSK9, IC50
Source text: • 1. Experimental objective: To detect the inhibitory effect of the compounds on PCSK9. • 2. Experimental instruments and reagents: • 2.1 Instruments:
• CircuLex Human PCSK9 ELISA kit (MBL: CY-8079); • DMEM (Gibco: 31966-021) • FBS (Sigma: S5394) • Compound plate (Thermo: 1353506) • Complete culture medium: DMEM+10% FBS+1×P/S; • Experimental culture medium: DMEM+10% FBS • Cell strain: HepG2 (ATCC: HB-8065)
A self-adhesive seal was applied, the plate was placed on a plate shaker at room temperature, gently shaken, uniformly mixed, and incubated for 1 hour. • 11) The plate was placed on the plate washer, the washing liquid was set to 350 μL per well, and the plate was washed 4 times repeatedly. • 12) 100 μL/well of an HRP-conjugated detection antibody was added, a self-adhesive seal was applied, and the plate was placed on the plate shaker, well mixed uniformly, and incubated for 1 hour. • 13) The plate was placed on the plate washer, the washing liquid was set to 350 μL per well, and the plate was washed 4 times repeatedly. • 14) 100 μL/well of Substrate reagent was added, and the plate was placed in the dark, applied with a self-adhesive seal, placed on the plate shaker, well mixed uniformly, and incubated for 10-20 minutes. • 15) 100 μL/well of Stop solution (1N H2SO4) was added and mixed uniformly. • 16) The optical density (OD) value in each well was measured in sequence at a wavelength of 450 nm by the microplate reader. Detection was carried out within 30 min after the reaction was stopped.
After the OD values were read by the microplate reader, the OD value of the 0-concentration standard in the standard group was subtracted from the OD values of the standards, control group, and samples to obtain the actual OD values for these wells. A standard curve was plotted with Graphpad and the concentration of the sample was calculated. If the dilution was performed during the sample detection, the calculated sample concentration was necessarily multiplied by the corresponding dilution ratio in the final calculation, which was the actual concentration of the sample. Inhibition rate=(actual concentration in control-actual concentration in sample)/actual concentration in control*100. According to the inhibition rates corresponding to the different concentrations, IC50 was derived by Graphpad.

PCSK9 protein = PCSK9 protein (Homo sapiens (Human), UniProt Q8NBP7); test: Binding experiment: surface plasmon resonance (SPR) binding to PCSK9 protein
Source text: • 1. Experimental objective: To detect the action of compounds to bind PCSK9 protein by a conventional surface plasmon resonance (SPR) method.

[2] = Pharmacokinetic determination in mice (plasma); format: in vivo, C57BL/6J mice; details: C57 mice, PO administration, 5 mpk; for AUC(0-inf) / half-life / MRT / Cmax: male, C57BL/6J, mouse, 5 mg/kg; for AUC(0-inf): read-out: Area under the curve AUC0-∞; for half-life: read-out: Half-life t1/2 (converted); for MRT: read-out: Mean residence time MRT; for Cmax: read-out: Plasma concentration Cmax
Protocol: C57BL/6J mice were used as test animals to study the pharmacokinetic behavior of the compounds of the present disclosure in mice (plasma) after oral and intravenous administration.
C57 mice, male, purchased from Shanghai Bk Lab Animal Co., Ltd., with animal production license number (SCXK (Shanghai) 2013-0006 NO.311620400001794).
• Preparation of oral drug: 10% Solutol HS15
10 g of Solutol HS15 solid was weighed, dissolved in 90 mL of pure water, uniformly mixed, stirred, and ultrasonically treated to form a clear solution.
The compound of the present disclosure was weighed and dissolved in this solution, uniformly shaken, and ultrasonically treated for 15 minutes to obtain a colorless clear solution with a concentration of 0.5 mg/mL. • Preparation of intravenous drug: 5% DMSO+10% Solutol HS15+85% PBS […]
3 male C57 mice were fasted overnight and then respectively administered PO at a dose of 5 mg/kg and a volume of 10 mL/kg. […]
Before and after administration of mice, 0.04 mL of blood was collected from the orbit at 0.083 (iv), 0.25, 0.5, 1, 2, 4, 8, and 24 hours, and placed in EDTA-K2 test tubes, which was centrifuged at 6000 rpm at 4° C. for 6 min to separate plasma which was stored at −80° C.; and the […] were fed 4 h after administration.
The final determination results were obtained by using an LCMS/MS method.
The main pharmacokinetic parameters were calculated using WinNonlin 6.1.

PCSK9 secreted by HepG2 cells, sequence (Q8NBP7 153-692): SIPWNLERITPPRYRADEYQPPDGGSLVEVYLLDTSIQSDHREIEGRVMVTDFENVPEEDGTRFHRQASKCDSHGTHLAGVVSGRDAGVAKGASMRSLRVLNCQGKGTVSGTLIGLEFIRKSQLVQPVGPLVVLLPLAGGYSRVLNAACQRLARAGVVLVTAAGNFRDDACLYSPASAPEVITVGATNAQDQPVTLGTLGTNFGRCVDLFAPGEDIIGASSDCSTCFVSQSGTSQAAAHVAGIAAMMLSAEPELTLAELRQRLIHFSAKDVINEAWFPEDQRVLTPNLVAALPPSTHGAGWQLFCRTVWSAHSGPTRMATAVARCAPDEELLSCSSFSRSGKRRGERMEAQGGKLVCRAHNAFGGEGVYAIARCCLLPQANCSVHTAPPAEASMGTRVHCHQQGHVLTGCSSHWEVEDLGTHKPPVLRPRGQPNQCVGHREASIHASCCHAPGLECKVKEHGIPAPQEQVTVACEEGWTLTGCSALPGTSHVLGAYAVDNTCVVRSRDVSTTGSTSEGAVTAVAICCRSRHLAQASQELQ
PCSK9 secreted by HepG2 cells, sequence (Q8NBP7 31-152 partner): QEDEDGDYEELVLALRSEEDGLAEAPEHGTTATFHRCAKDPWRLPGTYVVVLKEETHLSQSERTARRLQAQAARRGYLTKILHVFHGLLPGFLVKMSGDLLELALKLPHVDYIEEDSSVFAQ
PCSK9 protein, sequence (Q8NBP7 153-692): as the sequence (Q8NBP7 153-692) above

SMILES | IC50 [1] [nM] | Kd (PCSK9 protein) [nM] | Time to peak tmax [2] [h] | AUC(0-inf) [2] [ng·h/mL] | half-life [2] [h] | MRT [2] [h] | Cmax [2] [ng/mL]
O=c1ccccn1-c1ccc(N[C@H]2CC[C@H](Nc3nc4cc(C(F)(F)F)ccn4n3)C2)nc1 [Example 113, 6′-(((1S,3S)-3-((7-(trifluoromethyl)-[1,2,4]triazolo[1,5-a]pyridin-2-yl)amino)cyclopentyl)amino)-2H-[1,3′-bipyridinyl]-2-one] | 14000 | 4.2 | – | – | – | – | –
O=C1c2cccnc2CN1c1ccc(N[C@H]2CC[C@H](Nc3ncc(OCC(F)(F)F)cn3)C2)nc1 [Example 124] | 16800 | 0.8 | – | – | – | – | –
O=c1ccccn1-c1ccc(N[C@H]2CC[C@H](Nc3nc4cc(Cl)ccn4n3)C2)nc1 [Example 112, 6′-(((1S,3S)-3-((7-chloro-[1,2,4]triazolo[1,5-a]pyridin-2-yl)amino)cyclopentyl)amino)-2H-[1,3′-bipyridinyl]-2-one] | – | 2.7 | – | – | – | – | –
O=C1c2ncc(F)cc2CN1c1ccc(N[C@H]2CC[C@H](Nc3ncc(C(F)(F)F)nn3)C2)nc1 [Example 153, 3-Fluoro-6-(6-(((1S,3S)-3-((6-(trifluoromethyl)-1,2,4-triazin-3-yl)amino)cyclopentyl)amino)pyridin-3-yl)-5,6-dihydro-7H-pyrrolo[3,4-b]pyridin-7-one] | 26400 | – | 2 | 34600 | 2.9 | 4.4 | 6310
O=C1c2c(cccc2C(F)(F)F)CN1c1ccc(N[C@H]2CC[C@H](Nc3nc4cc(F)ccn4n3)C2)nc1 [Example 161] | 17600 | 2.6 | – | – | – | – | –
O=C1c2cccc(C(F)(F)F)c2CN1c1ccc(N[C@H]2CC[C@H](Nc3nc4cc(F)ccn4n3)C2)nc1 [Example 162] | 22800 | 3 | – | – | – | – | –
O=c1ccccn1-c1ccc(N[C@H]2CC[C@H](Nc3nc4cc(C5CC5)ccn4n3)C2)nc1 [Example 135, 6′-(((1S,3S)-3-((7-cyclopropyl-[1,2,4]triazolo[1,5-a]pyridin-2-yl)amino)cyclopentyl)amino)-2H-[1,3′-bipyridinyl]-2-one] | 22300 | 4.9 | – | – | – | – | –
CC1(C)c2cccnc2C(=O)N1c1ccc(N[C@H]2CC[C@H](Nc3ncc(OC(F)F)cn3)C2)nc1 [Example 93, 6-(6-(((1S,3S)-3-((5-(difluoromethoxy)pyrimidin-2-yl)amino)cyclopentyl)amino)pyridin-3-yl)-5,5-dimethyl-5,6-dihydro-7H-pyrrolo[3,4-b]pyridin-7-one] | – | 2.9 | – | – | – | – | –
O=C1c2nc(C(F)(F)F)ccc2CN1c1ccc(N[C@H]2CC[C@H](Nc3nc4cc(F)ccn4n3)C2)nc1 [Example 155, 6-(6-(((1S,3S)-3-((7-fluoro-[1,2,4]triazolo[1,5-a]pyridin-2-yl)amino)cyclopentyl)amino)pyridin-3-yl)-2-(trifluoromethyl)-5,6-dihydro-7H-pyrrolo[3,4-b]pyridin-7-one] | 19900 | 2.8 | 0.5 | 25500 | 5.9 | 1.9 | 10000
CC1(C)c2cccnc2C(=O)N1c1ccc(N[C@H]2CC[C@H](Nc3ncc(C(F)(F)F)nn3)C2)nc1 [Example 146, 5,5-Dimethyl-6-(6-(((1S,3S)-3-((6-(trifluoromethyl)-1,2,4-triazin-3-yl)amino)cyclopentyl)amino)pyridin-3-yl)-5,6-dihydro-7H-pyrrolo[3,4-b]pyridin-7-one] | – | 2.5 | – | – | – | – | –

Now from value to compound:

IC50 [1] [nM] | Kd (PCSK9 protein) [nM] | Time to peak tmax [2] [h] | AUC(0-inf) [2] [ng·h/mL] | half-life [2] [h] | MRT [2] [h] | Cmax [2] [ng/mL] | SMILES
9900 | 1.2 | – | – | – | – | – | Cc1ccn2nc(N[C@H]3CC[C@H](Nc4ccc(N5Cc6cccnc6C5=O)cn4)C3)nc2c1 [Example 130, 6-(6-(((1S,3S)-3-((7-methyl-[1,2,4]triazolo[1,5-a]pyridin-2-yl)amino)cyclopentyl)amino)pyridin-3-yl)-5,6-dihydro-7H-pyrrolo[3,4-b]pyridin-7-one]
11800 | 1.8 | – | – | – | – | – | O=C1c2ncccc2CN1c1ccc(N[C@H]2CC[C@H](Nc3ncc(C4CC4)cn3)C2)nc1 [Example 127]
1500 | – | 2 | 65500 | 9.6 | 12.1 | 5290 | O=C1c2cc(C(F)(F)F)ncc2CN1c1ccc(N[C@H]2CC[C@H](Nc3ncc(C(F)(F)F)nn3)C2)nc1 [Example 152, 6-(Trifluoromethyl)-2-(6-(((1S,3S)-3-((6-(trifluoromethyl)-1,2,4-triazin-3-yl)amino)cyclopentyl)amino)pyridin-3-yl)-2,3-dihydro-1H-pyrrolo[3,4-c]pyridin-1-one]
2400 | – | 2 | 50800 | 6.5 | 8.1 | 5930 | O=C1c2ncccc2CN1c1ccc(N[C@H]2CC[C@H](Nc3ncc(OC(F)(F)F)cn3)C2)nc1 [Example 142, 6-(6-(((1S,3S)-3-((5-(trifluoromethoxy)pyrimidin-2-yl)amino)cyclopentyl)amino)pyridin-3-yl)-5,6-dihydro-7H-pyrrolo[3,4-b]pyridin-7-one]
3800 | 3.1 | 0.5 | 20900 | 5.8 | 5.3 | 4290 | Cc1nccc2c1CN(c1ccc(N[C@H]3CC[C@H](Nc4ncc(OC(F)F)cn4)C3)nc1)C2=O [Example 115, 2-(6-(((1S,3S)-3-((5-(difluoromethoxy)pyrimidin-2-yl)amino)cyclopentyl)amino)-3-yl)-4-methyl-2,3-dihydro-1H-pyrrolo[3,4-c]pyridin-1-one]
500 | 1.2 | – | – | – | – | – | O=C1c2ncccc2CN1c1ccc(N[C@H]2CC[C@H](Nc3ncc(C4CC4)nn3)C2)nc1 [Example 126, 6-(6-(((1S,3S)-3-((6-cyclopropyl-1,2,4-triazin-3-yl)amino)cyclopentyl)amino)pyridin-3-yl)-5,6-dihydro-7H-pyrrolo[3,4-b]pyridin-7-one]
2600 | – | 1 | 42500 | 5.1 | 7.2 | 4060 | Cc1cc2c(cn1)CN(c1ccc(N[C@H]3CC[C@H](Nc4ncc(OC(F)F)cn4)C3)nc1)C2=O [Example 116, 2-(6-(((1S,3S)-3-((5-(difluoromethoxy)pyrimidin-2-yl)amino)cyclopentyl)amino)-3-yl)-6-methyl-2,3-dihydro-1H-pyrrolo[3,4-c]pyridin-1-one]
12000 | 1.1 | – | – | – | – | – | O=C1c2ncncc2CN1c1ccc(N[C@H]2CC[C@H](Nc3ncc(OC(F)F)cn3)C2)nc1 [Example 132, 6-(6-(((1S,3S)-3-((5-(difluoromethoxy)pyrimidin-2-yl)amino)cyclopentyl)amino)pyridin-3-yl)-5,6-dihydro-7H-pyrrolo[3,4-d]pyrimidin-7-one]
1100 | – | 0.25 | 36800 | 6.7 | 6.2 | 7530 | O=C1c2cccnc2CN1c1ccc(N[C@H]2CC[C@H](Nc3ncc(C(F)(F)F)cn3)C2)nc1 [Example 133, 6-(6-(((1S,3S)-3-((5-(trifluoromethyl)pyrimidin-2-yl)amino)cyclopentyl)amino)-3-yl)-6,7-dihydro-5H-pyrrolo[3,4-b]pyridin-5-one]
